{"source": "patent US20250090501A1", "about": "“METHODS OF TREATING GUT MOTILITY DISORDERS” (THE REGENTS OF THE UNIVERSITY OF CALIFORNIA, priority 2022, published 2025)", "key": {"[1]": {"system": "stage 1 enteric ganglioids", "conditions": "MEA"}, "[2]": {"system": "stage 2 enteric ganglioid", "conditions": "flow cytometry, stage 2 enteric ganglioids"}, "mouse colon": {"system": "mouse colon", "experiment": "Ex vivo colonic motility assay (organ bath, GIMM)", "conditions": "for CMMC intervals relative to the untreated condition: first experiment, five consecutive 10-min acquisitions, interval at 75th percentile", "method": "Preparation of solutions: Krebs buffer [NaCl (117 mM), KCl (4.7 mM), NaH2PO4 (1.2 mM), MgCl2 (1.5 mM), CaCl2·2H2O (2.5 mM), NaHCO3 (25 mM), Glucose (11 mM), pH 7.4] was placed in a 37° C. water bath and aerated with 95% 02 and 5% CO2 (carbogen) gas mixture for at least 30 minutes prior to experiment onset. “Drug” treatment solutions were freshly prepared by adding the drug compound into Krebs buffer before starting data acquisition. The solution with NOS1 inhibitor was prepared by adding N omega-nitro-L-arginine methyl ester hydrochloride (L-NAME) to the drug solutions making “Drug+L-NAME”.\nTissue dissection: For each experimental replicate, a pair of 8-week-old wild type C57BL6 mice (male) were placed in a sealed chamber and euthanized using CO2 asphyxiation followed by cervical dislocation. The lower GI tract (cecum and colon) was removed and immediately transferred to 37° C. carbogenated Krebs buffer, with the fecal matter still inside. Adipose tissue and mesentery were removed before placing the colons in the organ bath reservoir of gastrointestinal motility monitor (GIMM) apparatus.\nExperimental set-up and procedure: GIMM was designed based on a previously reported model (Swaminathan et al., 2016). The organ reservoir of GIMM has two-chambers for recording two specimens simultaneously. It is connected to working solutions kept at 37° C. via a 4-channel peristaltic pump (WPI, PERIPRO-4LS). Lower GI tract was harvested and transferred to the organ bath with the Krebs buffer was flowing through. The cecum was pinned down at the proximal tip and the distal end of the colon was pinned through the serosa/mesentery. Five 10-min (for the first experiments) or sequential 6-min (for the sequential drug treatment in the presence and absence of L-NAME) videos were recorded using the IC capture software (Imaging Source) with a high resolution monochromatic firewire industrial camera (Imaging Source®, DMK41AF02) connected to a ⅔″ 16 mm f/1.4 C-Mount Fixed Focal Lens (Fujinon HF16SA1). While tissue in the control chamber was only exposed to Krebs solution, the order of solutions in the experimental chamber was: Krebs, drug compound, Krebs (6 min each), L-NAME (2 min), L-NAME in the presence of a drug compound (6 min) and Krebs (6 min). The chambers were cleaned after each acquisition.\nData and statistical analysis: VolumetryG9a was used to generate the spatiotemporal map (STM) of each acquisition (Spear et al., 2018). Slow waves (SW) and colonic migrating motor complexes (CMMC) data were generated from STMs. Statistical analyses were performed using PRISM.\nFor selected compounds, a more comprehensive and integrated target analysis was performed by combining reported experimental data (Binding DB) and computational methods (SEA, Carlsbad, Dinies, Swisstarget, Superdrug, Pubchem Bioassays, FIG. 2G). The effects of these compounds was tested on colonic motility in organ bath assays (FIG. 2H). In these assays, resected segments of mouse colon were maintained in a physiologic buffer to study motility patterns using video recording. In the first experiment the effect of all selected drug candidates was tested on mouse colonic motility, ex vivo (FIG. 2I). In each experiment, an untreated control and a drug-treated colon sample were tested side by side during five consecutive 10-min acquisitions. For each acquisition, instead of analyzing fecal outputs, which are generally variable, more sophisticated contraction analysis was performed by generating spatiotemporal maps from video data based on the changes in the colonic diameter over time, and used to calculate the rate of colonic migrating motor complexes (CMMC) and slow waves (SW)."}, "[3]": {"system": "stage 1 enteric ganglioids", "experiment": "snRNA-seq comparison of PP121 treated vs control enteric ganglioids", "assay_type": "cell-based, human", "conditions": "snRNA-seq sub-clustering", "method": "All tubes and pipet tips used for cell harvesting were pre-treated with 1% BSA in 1×PBS. Cells were dissociated in Accutase (Stem Cell) at 37° C., in 10 min increments, with end-to-end rotation, until single cell suspension was obtained. The cells were washed in Cell Staining Buffer (Biolegend) and stained with TotalSeq HTO antibodies for 30 min on ice. The cells were washed twice in Cell Staining Buffer and filtered through a 40 μm pipette tip strainer (BelArt). […] The libraries were sequenced on Illumina NovaSeq sequencer in the Center for Advanced Technologies (UCSF). The cell feature matrices were extracted using kallisto/bustools, and demultiplexed using seurat.\nTo compare the gene expression of control and PP121 treated cell types, neuronal subtypes and NO neuron subtypes, a subset dataset of each cell type and subtype annotation was first created. For each subset, the non-imputed average expression of all genes was then calculated for the control and PP121 treated cells using the “AverageExpression” function and natural log transformed for plotting. R2 values comparing the control and PP121 natural log expression values were calculated from linear modeling using the “y˜x” formula.\nTo compare PP121 treated and untreated stage 1 enteric ganglioids in single cell resolution, snRNA-seq was performed, and both datasets combined."}, "EGFRs": {"system": "EGFRs", "conditions": "cited from earlier work"}, "[4]": {"system": "stage 1 NOS1::GFP enteric ganglioids", "experiment": "NO neuron induction in stage 1 enteric ganglioids (flow cytometry)", "assay_type": "cell-based, human", "conditions": "for NO neuron induction / NO neuron proportions in response to RTK ligands: stage 1 enteric ganglioids", "method": "List of antibodies and working dilutions is not shown.\n(§1) To identify compounds that induce NO neuron differentiation, enteric crestospheres were treated with 1694 compounds in the Selleck inhibitor Library™ and 12 hit compounds that increased the proportion of NOS1^+ neurons by at least eight folds were identified (FIG. 7A and FIG. 8A-B). […] After clustering the predicted protein targets, common patterns emerged for a subset of compounds.\nTo determine the mechanism by which PP121 induced NO neuron enrichment in ganglioids, a combination of pharmacological and genetic approaches was used. […] The crestosphere snRNA-seq analysis confirmed the expression of PDGFRA, PDGFRB, ERBB2, and ERBB3 while the mRNA for VEGFRs were not detectable (FIG. 7L). The induction efficiency of NO neurons was evaluated in response to PDGF (PDGFR agonist), sunitinib (PDGFR and VEGFR antagonist), NRG1 (ERBBs agonist), and sapitinib (ERBBs antagonist) (FIG. 7M). […] To genetically confirm the role of PDGFR signaling in NO neuron induction, CRISPR-Cas9 was used to knock-out PDGFRA and PDGFRB in the enteric crestospheres and the percentage of NO neurons in stage 1 ganglioids was analyzed. NO neurons were […] in both PDGFRA and PDGFRB knock-out cultures further confirming the PP121 mechanism of action (FIG. 7O-P)."}, "[5]": {"system": "hESC-derived 2D ENS cultures (NOS1+ cells)", "experiment": "High-throughput screening to identify compounds that enrich NO neurons", "assay_type": "cell-based, human", "design": "dose or concentration left out as unconfirmed", "conditions": "1694 inhibitors, treated D15-D20, read at day 40", "method": "Day 15 H9 hESC-derived enteric crestospheres were dissociated into single cells (accutase, Stemcell Technologies, 07920, 30 min, 37° C.), resuspended in ENC medium and were transferred into 384-well plates. Plates were incubated for 2 hours for cells to attach. Using a pin tool, drugs from a library of 1694 inhibitors (SelleckChem, USA) were added to wells at the final concentration of […] and plates were incubated with drugs until D20, when media were changed to ENC with no drugs. At day 40, cells were fixed, stained for NOS1 and imaged using InCellAnalyzer 2000 (GE Healthcare, USA). Hits were selected based on the fold increase of the percentage of NOS1^+ cells relative to the wells treated with vehicle (DMSO).\nas §1"}, "VEGFRs": {"system": "VEGFRs", "conditions": "cited from earlier work"}, "PDGFRs": {"system": "PDGFRs", "conditions": "cited from earlier work"}, "[6]": {"conditions": "6-min treatment, all five replicates"}}, "data": [{"compound": "CNC[C@H](O)c1ccc(O)c(O)c1", "note": "[Epinephrine, epinephrine]", "values": [{"measurement": "electrical firing of ganglioid neurons", "setting": "[1]", "value": "increased electrical firing"}, {"measurement": "neuronal cFOS expression", "setting": "[2]", "value": "induced neuronal cFOS expression"}]}, {"compound": "Cc1cccc(C#Cc2ccccc2)n1", "note": "[MPEP]", "values": [{"measurement": "CMMC intervals relative to the untreated condition", "setting": "mouse colon", "value": "promising effects on lowering CMMC intervals"}]}, {"compound": "Nc1ncnc2c1c(-c1cnc3[nH]ccc3c1)nn2C1CCCC1", "note": "[PP121]", "values": [{"measurement": "abundance of neuronal subtypes", "setting": "[3]", "value": "enriched cultures for neuronal subtypes EN D and H"}, {"measurement": "inhibitory activity on EGFRs", "setting": "EGFRs", "value": "known inhibitory activity"}, {"measurement": "NO neuron induction efficiency by treatment window", "setting": "[4]; 2 μM PP121, five days at various time points, GFP signal", "value": "highest induction efficiency for cells treated during day 15-20"}, {"measurement": "NO neuron induction efficiency, concentration dependence", "setting": "[4]; different PP121 concentrations at D15-D20, flow cytometry", "value": "dose-dependent effect"}, {"measurement": "fold increase of the percentage of NOS1+ cells relative to vehicle (DMSO)", "setting": "[5]", "value": "highest % NOS1^+ fold increase in this subset of compounds"}, {"measurement": "inhibitory activity on VEGFRs", "setting": "VEGFRs", "value": "known inhibitory activity"}, {"measurement": "inhibitory activity on PDGFRs", "setting": "PDGFRs", "value": "known inhibitory activity"}]}, {"compound": "O=C1CCc2ccc(OCCCCN3CCN(c4cccc(Cl)c4Cl)CC3)cc2N1", "note": "[aripiprazole]", "values": [{"measurement": "CMMC intervals relative to the untreated condition", "setting": "mouse colon", "value": "promising effects on lowering CMMC intervals"}]}, {"compound": "Cc1cccc([C@H](C)c2cnc[nH]2)c1C", "note": "[dexmedetomidine]", "values": [{"measurement": "average duration of LCEs", "setting": "mouse colon; [6]", "value": "increasing trend"}, {"measurement": "total number of longitudinal contractile events (LCEs)", "setting": "mouse colon; [6]", "value": "decrease"}, {"measurement": "effects on LCEs after the drug removal", "setting": "mouse colon; Krebs washout", "value": "reversed"}, {"measurement": "effects on LCEs with L-NAME co-treatment", "setting": "mouse colon; L-NAME co-treatment", "value": "blocked"}, {"measurement": "effect on CMMC intervals with L-NAME", "setting": "mouse colon; dexmedetomidine+L-NAME simultaneously", "value": "absent"}, {"measurement": "CMMC intervals relative to the untreated condition", "setting": "mouse colon", "value": "promising effects on lowering CMMC intervals"}, {"measurement": "CMMC intervals", "setting": "mouse colon; sequential 6-min treatments, five sample pairs, 1 μM, drug alone", "value": "decreased CMMC intervals in four out of five colon samples"}]}, {"compound": "O=C1CCC[C@@H]2[C@H]3CCCN4CCC[C@@H](CN12)[C@@H]34", "note": "[matrine]", "values": [{"measurement": "CMMC intervals relative to the untreated condition", "setting": "mouse colon", "value": "promising effects on lowering CMMC intervals"}]}, {"compound": "CNC(=O)CN1CCC(Oc2cc3c(Nc4cccc(Cl)c4F)ncnc3cc2OC)CC1", "note": "[sapitinib]", "values": [{"measurement": "NO neuron induction / NO neuron proportions in response to RTK ligands", "setting": "[4]", "value": "no significant effect"}]}, {"compound": "PDGF", "values": [{"measurement": "NO neuron induction / NO neuron proportions in response to RTK ligands", "setting": "[4]", "value": "lower"}]}]}
